pIC50: −log10 of the molar value. In brackets after ≈: the same amount, converted by molar mass. Read-outs that look alike come from different tables or passages of the source.
Columns and labels:
[1] = tested on: Candida albicans ATCC 38246; assay: Anti-Candida activity, plate test procedure, strain ATCC 38246; type: cell-based; conditions: ATCC38246, read-out: Anti-Candida Activity, Minimal Inhibitory Concentration (MIC)
Method: (§1) Antifungal activity of the compounds of this invention was measured against 5 strains of Candida albicans using a plate test procedure for measurement of inhibition. The following represents the typical procedure used. Compound to be tested was placed on sterile dried 1/4" plate disks, and allowed to dry. Agar plates were seeded with fungi and allowed to solidify. The impregnated disks were placed on the seeded Agar surface and incubated for the time required for the particular culture. Results are expressed in MIC (μg/ml) to inhibit growth.

[2] = tested on: Candida albicans ATCC 10231; assay: Anti-Candida activity, plate test procedure, strain ATCC 10231; type: cell-based; conditions: ATCC10231, read-out: Anti-Candida Activity, Minimal Inhibitory Concentration (MIC)
Method: as §1

[3] = tested on: Candida albicans ATCC 38247; assay: Anti-Candida activity, plate test procedure, strain ATCC 38247; type: cell-based; conditions: ATCC38247, read-out: Anti-Candida Activity, Minimal Inhibitory Concentration (MIC)
Method: as §1

[4] = tested on: Candida albicans ATCC 38248; assay: Anti-Candida activity, plate test procedure, strain ATCC 38248; type: cell-based; conditions: ATCC38248, read-out: Anti-Candida Activity, Minimal Inhibitory Concentration (MIC)
Method: as §1

[5] = tested on: thymocyte proliferation (cells from the thymus of normal BALB/c mice); assay: comitogen-induced thymocyte proliferation procedure (LAF); type: cell-based; conditions: read-out: LAF IC50
Method: Immunosuppressive activity was evaluated in an in vitro standard pharmacological test procedure to measure lymphocyte proliferation (LAF) and in an in vivo procedure in which the survival time of a pinch skin graft was evaluated.
The comitogen-induced thymocyte proliferation procedure (LAF) was used as an in vitro measure of the immunosuppressive effects of representative compounds. Briefly, cells from the thymus of normal BALB/c mice are cultured for 72 hours with PHA and IL-1 and pulsed with tritiated thymidine during the last six hours. […] Cells are harvested and incorporated; radioactivity is determined. Inhibition of lymphoproliferation is assessed in percent change in counts per minute from non-drug treated controls. […] [formula]

[6] = tested on: pinch skin grafts from male DBA/2 donors transplanted to male BALB/c recipients; assay: survival time of pinch skin grafts (in vivo); design: species or system BALB/c mice; conditions: intraperitoneal; DBA/2 donors to BALB/c recipients
Method: The recipients are treated with either varying concentrations of cyclosporin A as test control or the test compound, intraperitoneally. Untreated recipients serve as rejection control. The graft is monitored daily and observations are recorded until the graft becomes dry and forms a blackened scab. This is considered as the rejection day.

[7] = tested on: Candida albicans 3669; assay: Anti-Candida activity, plate test procedure, strain 3669; type: cell-based; conditions: read-out: Anti-Candida Activity, Minimal Inhibitory Concentration (MIC)
Method: as §1

[8] = tested on: Candida albicans; conditions: especially against Candida albicans; cited from earlier work
[9] = tested on: immune response; conditions: cited from earlier work
[10] = Mus musculus, Thymocyte, thymocytes cultured 72 hours with PHA and IL-1, tritiated thymidine last six hours

| Compound | MIC [1] | MIC [2] | MIC [3] | MIC [4] | pIC50 [5, 10] | Skin Graft, mean survival days [6] | MIC [7] | antifungal activity (in words) [8] | pIC50 ([5]; Mus musculus, Thymocyte) | inhibition of the immune response (in words) [9] | pIC50 ([5]; thymocytes cultured 72 hours with PHA and IL-1, tritiated thymidine last six hours) |
| --- | --- | --- | --- | --- | --- | --- | --- | --- | --- | --- | --- |
| CO[C@H]1C[C@@H]2CC[C@@H](C)[C@@](O)(O2)C(=O)C(=O)N2CCCC[C@H]2C(=O)O[C@H]([C@H](C)C[C@@H]2CC[C@@H](O)[C@H](OC)C2)CC(=O)[C@H](C)/C=C(\C)[C@@H](OC(C)(C)OC)[C@@H](OC)C(=O)[C@H](C)C[C@H](C)/C=C/C=C/C=C/1C [Example 1, 31-[O-(1-Methoxy-1-methyl)ethyl]rapamycin] | 0.4 µg/mL (≈ 0.406 µM) | 0.025 µg/mL (≈ 0.0253 µM) | 0.025 µg/mL (≈ 0.0253 µM) | 0.1 µg/mL (≈ 0.101 µM) | 8.49 | 10.7 days | 0.4 µg/mL (≈ 0.406 µM) |  |  |  |  |
| CO[C@H]1C[C@@H]2CC[C@@H](C)[C@@](O)(O2)C(=O)C(=O)N2CCCC[C@H]2C(=O)O[C@H]([C@H](C)C[C@@H]2CC[C@@H](OC(C)(C)OC)[C@H](OC)C2)CC(=O)[C@H](C)/C=C(\C)[C@@H](O)[C@@H](OC)C(=O)[C@H](C)C[C@H](C)/C=C/C=C/C=C/1C [Example 2, 42-[O-(1-methoxy-1-methyl)ethyl]rapamycin] | 0.4 µg/mL (≈ 0.406 µM) | 0.025 µg/mL (≈ 0.0253 µM) | 0.025 µg/mL (≈ 0.0253 µM) | 0.1 µg/mL (≈ 0.101 µM) | 8.08 |  | 0.2 µg/mL (≈ 0.203 µM) |  |  |  |  |
| CO[C@H]1C[C@@H]2CC[C@@H](C)[C@@](O)(O2)C(=O)C(=O)N2CCCC[C@H]2C(=O)O[C@H]([C@H](C)C[C@@H]2CC[C@@H](O)[C@H](OC)C2)CC(=O)[C@H](C)/C=C(\C)[C@@H](O)[C@@H](OC)C(=O)[C@H](C)C[C@H](C)/C=C/C=C/C=C/1C [Rapamycin, reference compound] | 0.25 µg/mL (≈ 0.273 µM) | 0.03 µg/mL (≈ 0.0328 µM) | 0.03 µg/mL (≈ 0.0328 µM) | 0.006 µg/mL (≈ 0.00656 µM) |  |  | 0.25 µg/mL (≈ 0.273 µM) | profound antifungal activity | 8.24 to 8.48 | inhibit the immune response |  |
| 31-[O-[2-(trimethylsilyl)ethoxylmethyl]rapamycin [Example 3] |  |  |  |  |  |  |  |  |  |  | 7.76 |
